Source: patent publication US20230094006A1, “PHARMACEUTICAL COMPOSITION CONTAINING MACROLIDE COMPOUND, PRODUCTION METHOD THEREFOR, AND METHOD USING SAME” (priority 2020, published 2023)
≈ marks a conversion by molar mass, not a printed value. Where two headings read alike, the source gives them in different places.

Key:
M. tuberculosis = assay: Resazurin microtiter MIC, arenicolide A and ethambutol alone and combined; format: cell-based; conditions: Mycobacterium tuberculosis, 120 h
[1] = tested on: BCG (bacillus Calmette-Guerin) strain; format: in vivo, Mycobacterium bovis; conditions: mice, nasal infection 1×10^6 CFU BCG; 100 mg/kg oral for 6 days from day 4; sacrifice day 10; vs negative control
M. abscessus strain = assay: Mouse non-tuberculous Mycobacterium infection model, viable cells in lung tissue; format: in vivo; conditions: mice, nasal infection 1×10^7 CFU M. abscessus; 100 mg/kg oral for 5 days from day 3; sacrifice day 7; vs negative control, p<0.001
Experimental: As described in Example 2-2, 57BL/6 mice were nasally infected with 1×10^7/CFU of M. abscessus strain. From the 3rd day, arenicolide A was orally administered at a dose of 100 mg/body weight kg for 5 days. As a negative control, 2.5% (v/v) DMSO and 2.5% (v/v) ethanol were administered. Mice were sacrificed on day 7 from the day of infection. The number of viable tubercle bacilli in the lung tissue was investigated, and the results are shown in FIG. 3 (each, n=6, ***: p<0.001).

[2] = tested on: Mycobacterium tuberculosis (Mtb); assay: Mouse tuberculosis infection model, viable Mycobacterium tuberculosis in lung tissue; format: in vivo; conditions: C57BL/6 mice, nasal infection 2×10^4 CFU; 100 mg/kg oral for 6 days from day 4; sacrifice day 10; vs PBS negative control, p<0.001
Experimental: C57BL/6 mice (n=16) were prepared to investigate the anti-tuberculous activity of arenicolide A. Mice were nasally infected with 2×10^4/CFU of Mycobacterium tuberculosis (Mtb), and the mice were randomly divided into two groups (each, n=8). From the 4th day, arenicolide A was orally administered at a dose of 100 mg/body weight kg for 6 days. Phosphate-buffered saline (PBS) was administered as a negative control. Mice were sacrificed on day 10 from the day of infection (FIG. 2A).

[3] = tested on: Mycobacterium tuberculosis Mtb H37Rv strain; assay: Resazurin microtiter assay (REMA), standard strain
Experimental: MIC was measured by using a resazurin microtiter assay (REMA). Briefly, 100 μl of 7H9 liquid medium was added to each well of a 96-well microtiter plate, and two-fold serial dilutions of antibiotics were directly added to each well. Plates were covered and incubated for 5 days at 37° C. Resazurin (0.01% (w/v)) was added to each well and the plates were incubated overnight. Fluorescence intensity was measured by using a SpectraMax M3 Multi-Mode Microplate Reader (Molecular Devices, CA, USA) (ex. 560/em. 590 nm).

[4] = tested on: M. tuberculosis mc2 6230 strain; assay: Resazurin microtiter assay (REMA), dose-response curve; format: cell-based; conditions: Mycobacterium tuberculosis, MC26230STRAIN, 120 h, M. tuberculosis mc2 6230, 7H9 liquid medium, 5 days at 37° C.

SMILES | MIC (M. tuberculosis; administered alone, Middlebrook 7H9 with ADC, 5 days at 37° C., resazurin, read-out: MIC) [µM] | inhibitory activity against BCG bacteria (viable cells in lung tissue) [1] | number of viable cells in the lung tissue (M. abscessus strain) | number of viable Mycobacterium tuberculosis in the lung tissue [2] | MIC50 [3] [µM] | MIC50 [4] [µM] | MIC (M. tuberculosis) [µM]
CC[C@@H](CO)NCCN[C@@H](CC)CO [ethambutol, reference compound] | 3.2 | – | – | – | – | – | –
CCC[C@@H]1O[C@@](C)([C@@H](O)C/C=C/[C@@H]2OC(=O)/C=C/C=C/[C@@H](OC)[C@H](O)/C=C/C(C)=C/C(C)CCC[C@@H](OC)[C@H](O)/C=C/C(C)=C/[C@@H](C)[C@H](O)[C@H]2OC)[C@H](O)[C@@H]1OC (some centres unmarked) [arenicolide C] | – | effective inhibitory activity | – | – | – | – | –
CCC[C@H](O)[C@@H](OC)[C@H]1O[C@]1(C)[C@@H](O)C/C=C/[C@@H]1OC(=O)/C=C/C=C/[C@@H](OC)[C@H](O)/C=C/C(C)=C/[C@@H](C)CCC[C@@H](OC)C(O)/C=C/C(C)=C/[C@@H](C)[C@H](O)[C@H]1OC (some centres unmarked) [arenicolide A] | – | effective inhibitory activity | significantly decreased | significantly reduced | ~6.9 (≈ 5.55 µg/mL) | ~24.6 (≈ 19.8 µg/mL) | 0.78
